Laboratory results: patent publication US20040044006A1, “Methods of use of quinolone compounds against pneumococcal and haemophilus bacteria” (priority 1999, published 2004)
≈ marks a conversion by molar mass, not a printed value.

Test system: quinolone-resistant Haemophilus influenzae strains
Assay: Microdilution MIC determination in HTM for quinolone-resistant Haemophilus influenzae strains
Format: cell-based
Method: Inocula were prepared from chocolate agar plates incubated for a full 24 hours by the direct colony suspension method as follows: In a tube of Mueller-Hinton broth (Difco), an organism suspension was made to a density of a 0.5 McFarland standard (1×10^8 CFU/ml). The latter inoculum was diluted in sterile saline such that final organisms suspensions in trays yielded colony counts of 3-8×10^5 CFU/ml. Frozen microdilution trays were obtained from MicroMedia Systems, Inc. (Cleveland, Ohio, USA). Each tray contained all antimicrobials prepared in freshly made HTM. Wells were inoculated with 100 μl suspensions and incubated in ambient air at 35° C. for 20-24 hours. The lowest drug concentration showing no growth was read as the MIC. Standard quality control strains, including H. influenzae ATCC 49766, H. influenzae ATCC 49247, Staphylococcus aureus ATCC 29213 and Escherichia coli ATCC 25922 were included with each run.

[1] = strain 1, GyrA S84→L, ParC S133→A N138→S, GyrB None, ParE None
[2] = strain 2, GyrA S84→F, ParC None, GyrB None, ParE S458→L
[3] = strain 3, GyrA S84→L, ParC S84→I, GyrB None, ParE None
[4] = strain 4, GyrA S84→F D88→N, ParC D83→N, GyrB None, ParE T459→S
[5] = strain 5, GyrA S84→Y, ParC E88→K, GyrB Q468→R, ParE G405→S
[6] = strain 6, GyrA S84→L A117→E, ParC S84→R, GyrB None, ParE D420→N
[7] = strain 7, GyrA S84→L A117→E, ParC S84→R, GyrB None, ParE D420→N
[8] = strain 8, GyrA S84→L A117→E, ParC S84→R, GyrB None, ParE D420→N
[9] = strain 9, GyrA S84→F D88→Y, ParC S84→R N138→S, GyrB None, ParE S458→A S474→N
[10] = strain 1, mutations S133-A N138-S, None, S84-L
[11] = strain 2, mutations NONE, S458-L, S84-F, None
[12] = strain 3, mutations S84-I, None, S84-L
[13] = strain 4, mutations D83-N, S458-S-T459, S84-F D88-N, Q468-R
[14] = strain 5, mutations E88-K, G405-S, S84-Y, None
[15] = strain 6, mutations S84-R, D420-N, S84-L A117-E, None
[16] = strain 7, mutations S84-R, D420-N, S84-L A117-E, None
[17] = strain 8, mutations S84-R, D420-N, S84-L A117-E, None
[18] = strain 9, mutations S84-R N138-S, S458-A S474-N, S84-F D88-Y, None

With `O=C(O)c1cn(C2CC2)c2cc(N3CCNCC3)c(F)cc2c1=O` [Cip] as the molecule, how does the MICs [1] read?
The MICs was 0.5 µg/mL.

What about the MICs [2] of the same molecule?
The MICs was 0.25 µg/mL.

And the MICs [3]?
The MICs was 1 µg/mL.

What about the MICs [4] of the same molecule?
Its MICs is 1 µg/mL.

What about the MICs [5] of the same molecule?
The MICs was 1 µg/mL.

What about the MICs [6] of the same molecule?
Its MICs is 2 µg/mL.

And the MICs [7]?
The MICs was 2 µg/mL.

What about the MICs [8] of the same molecule?
Its MICs is 2 µg/mL.

And the MICs [9]?
Its MICs is 8 µg/mL.

With `O=C(O)c1cn(C2CC2)c2cc(N3CCNCC3)c(F)cc2c1=O` [Cipro] as the molecule, how does the MIC (Haemophilus influenzae, strain 1, mutations S133-A N138-S, None, S84-L) read?
The MIC was 0.5 µg/mL (≈ 1.51 µM).

What about the MIC (Haemophilus influenzae, strain 2, mutations NONE, S458-L, S84-F, None) of the same molecule?
Its MIC is 0.25 µg/mL (≈ 0.754 µM).

What about the MIC (Haemophilus influenzae, strain 3, mutations S84-I, None, S84-L) of the same molecule?
The MIC was 1 µg/mL (≈ 3.02 µM).

What about the MIC (Haemophilus influenzae, strain 4, mutations D83-N, S458-S-T459, S84-F D88-N, Q468-R) of the same molecule?
Its MIC is 1 µg/mL (≈ 3.02 µM).

What about the MIC (Haemophilus influenzae, strain 5, mutations E88-K, G405-S, S84-Y, None) of the same molecule?
The MIC was 1 µg/mL (≈ 3.02 µM).

What about the MIC (Haemophilus influenzae, strain 6, mutations S84-R, D420-N, S84-L A117-E, None) of the same molecule?
Its MIC is 2 µg/mL (≈ 6.04 µM).

And the MIC (Haemophilus influenzae, strain 7, mutations S84-R, D420-N, S84-L A117-E, None)?
Its MIC is 2 µg/mL (≈ 6.04 µM).

And the MIC (Haemophilus influenzae, strain 8, mutations S84-R, D420-N, S84-L A117-E, None)?
Its MIC is 2 µg/mL (≈ 6.04 µM).

And the MIC (Haemophilus influenzae, strain 9, mutations S84-R N138-S, S458-A S474-N, S84-F D88-Y, None)?
Its MIC is 8 µg/mL (≈ 24.1 µM).

For `CO/N=C1\CN(c2nc3c(cc2F)c(=O)c(C(=O)O)cn3C2CC2)CC1CN` (stereo not drawn) [Gemi], which MIC [10] is on record?
Its MIC is 0.03 µg/mL (≈ 0.077 µM).

And the MIC [11]?
Its MIC is 0.125 µg/mL (≈ 0.321 µM).

What about the MIC [12] of the same molecule?
The MIC was 0.125 µg/mL (≈ 0.321 µM).

And the MIC [13]?
The MIC was 0.25 µg/mL (≈ 0.642 µM).

What about the MIC [14] of the same molecule?
Its MIC is 0.25 µg/mL (≈ 0.642 µM).

What about the MIC [15] of the same molecule?
The MIC was 0.5 µg/mL (≈ 1.28 µM).

What about the MIC [16] of the same molecule?
The MIC was 0.5 µg/mL (≈ 1.28 µM).

What about the MIC [17] of the same molecule?
Its MIC is 0.5 µg/mL (≈ 1.28 µM).

And the MIC [18]?
The MIC was 1 µg/mL (≈ 2.57 µM).

Which MICs [1] does the source give for `Cc1c(F)c(N2CCNC(C)C2)cc2c1c(=O)c(C(=O)O)cn2C1CC1` (stereo not drawn) [Gre] here?
The MICs was 0.25 µg/mL.

What about the MICs [2] of the same molecule?
Its MICs is 0.5 µg/mL.

And the MICs [3]?
The MICs was 0.5 µg/mL.

What about the MICs [4] of the same molecule?
Its MICs is 2 µg/mL.

What about the MICs [5] of the same molecule?
The MICs was 1 µg/mL.

What about the MICs [6] of the same molecule?
The MICs was 1 µg/mL.

And the MICs [7]?
Its MICs is 1 µg/mL.

And the MICs [8]?
Its MICs is 1 µg/mL.

And the MICs [9]?
Its MICs is 4 µg/mL.

What does the source list for `Cc1c(F)c(N2CCNC(C)C2)cc2c1c(=O)c(C(=O)O)cn2C1CC1` (stereo not drawn) [Grepa]?
MIC [10]: 0.25 µg/mL (≈ 0.696 µM); MIC [11]: 0.5 µg/mL (≈ 1.39 µM); MIC [12]: 0.5 µg/mL (≈ 1.39 µM); MIC [13]: 2 µg/mL (≈ 5.56 µM); MIC [14]: 1 µg/mL (≈ 2.78 µM); MIC [15]: 1 µg/mL (≈ 2.78 µM); MIC [16]: 1 µg/mL (≈ 2.78 µM); MIC [17]: 1 µg/mL (≈ 2.78 µM); MIC [18]: 4 µg/mL (≈ 11.1 µM)

For `C[C@H]1COc2c(N3CCN(C)CC3)c(F)cc3c(=O)c(C(=O)O)cn1c23` [Lev], which MICs [1] is on record?
Its MICs is 0.5 µg/mL.

And the MICs [2]?
Its MICs is 0.25 µg/mL.

What about the MICs [3] of the same molecule?
Its MICs is 1 µg/mL.

What about the MICs [4] of the same molecule?
Its MICs is 0.5 µg/mL.

And the MICs [5]?
The MICs was 1 µg/mL.

What about the MICs [6] of the same molecule?
The MICs was 2 µg/mL.

What about the MICs [7] of the same molecule?
The MICs was 2 µg/mL.

What about the MICs [8] of the same molecule?
The MICs was 2 µg/mL.

What about the MICs [9] of the same molecule?
The MICs was 4 µg/mL.

Which results are given for `C[C@H]1COc2c(N3CCN(C)CC3)c(F)cc3c(=O)c(C(=O)O)cn1c23` [Levo]?
MIC [10]: 0.5 µg/mL (≈ 1.38 µM); MIC [11]: 0.25 µg/mL (≈ 0.692 µM); MIC [12]: 1 µg/mL (≈ 2.77 µM); MIC [13]: 0.5 µg/mL (≈ 1.38 µM); MIC [14]: 1 µg/mL (≈ 2.77 µM); MIC [15]: 2 µg/mL (≈ 5.53 µM); MIC [16]: 2 µg/mL (≈ 5.53 µM); MIC [17]: 2 µg/mL (≈ 5.53 µM); MIC [18]: 4 µg/mL (≈ 11.1 µM)

Which results are given for `C[C@@H]1CN(c2c(F)c(N)c3c(=O)c(C(=O)O)cn(C4CC4)c3c2F)C[C@H](C)N1` [Spa]?
MICs [1]: 0.25 µg/mL; MICs [2]: 0.25 µg/mL; MICs [3]: 0.5 µg/mL; MICs [4]: 0.25 µg/mL; MICs [5]: 1 µg/mL; MICs [6]: 1 µg/mL; MICs [7]: 1 µg/mL; MICs [8]: 1 µg/mL; MICs [9]: 8 µg/mL

`C[C@@H]1CN(c2c(F)c(N)c3c(=O)c(C(=O)O)cn(C4CC4)c3c2F)C[C@H](C)N1` [Spar] was tested. Which MIC [10] did it give?
Its MIC is 0.25 µg/mL (≈ 0.637 µM).

And the MIC [11]?
The MIC was 0.25 µg/mL (≈ 0.637 µM).

And the MIC [12]?
The MIC was 0.5 µg/mL (≈ 1.27 µM).

What about the MIC [13] of the same molecule?
Its MIC is 0.25 µg/mL (≈ 0.637 µM).

And the MIC [14]?
The MIC was 1 µg/mL (≈ 2.55 µM).

What about the MIC [15] of the same molecule?
The MIC was 1 µg/mL (≈ 2.55 µM).

What about the MIC [16] of the same molecule?
Its MIC is 1 µg/mL (≈ 2.55 µM).

What about the MIC [17] of the same molecule?
The MIC was 1 µg/mL (≈ 2.55 µM).

What about the MIC [18] of the same molecule?
The MIC was 8 µg/mL (≈ 20.4 µM).

`N[C@@H]1[C@H]2CN(c3nc4c(cc3F)c(=O)c(C(=O)O)cn4-c3ccc(F)cc3F)C[C@@H]12` [Tro] was tested. Which MICs [1] did it give?
Its MICs is 1 µg/mL.

And the MICs [2]?
The MICs was 0.25 µg/mL.

And the MICs [3]?
The MICs was 1 µg/mL.

What about the MICs [4] of the same molecule?
The MICs was 0.5 µg/mL.

What about the MICs [5] of the same molecule?
The MICs was 1 µg/mL.

What about the MICs [6] of the same molecule?
Its MICs is 4 µg/mL.

And the MICs [7]?
The MICs was 4 µg/mL.

And the MICs [8]?
Its MICs is 4 µg/mL.

What about the MICs [9] of the same molecule?
The MICs was 8 µg/mL.

What does the source list for `N[C@@H]1[C@H]2CN(c3nc4c(cc3F)c(=O)c(C(=O)O)cn4-c3ccc(F)cc3F)C[C@@H]12` [Trova]?
MIC [10]: 1 µg/mL (≈ 2.4 µM); MIC [11]: 0.25 µg/mL (≈ 0.6 µM); MIC [12]: 1 µg/mL (≈ 2.4 µM); MIC [13]: 0.5 µg/mL (≈ 1.2 µM); MIC [14]: 1 µg/mL (≈ 2.4 µM); MIC [15]: 4 µg/mL (≈ 9.61 µM); MIC [16]: 4 µg/mL (≈ 9.61 µM); MIC [17]: 4 µg/mL (≈ 9.61 µM); MIC [18]: 8 µg/mL (≈ 19.2 µM)
